Measured values as given in paper PMC7413254 (Nature Communications, 2020).

What was measured:
PfCRT^Dd2 = PfCRT^Dd2 (Plasmodium falciparum, UniProt Q9N623, A220S/I356T/K76T/M74I/N326S/N75E/Q271E/R371I); test: cell-based; details: mean ± SEM, n = 5, SEM
Protocol: (§1) The characterisation of [^3H]VF-6 transport via 23 different field and laboratory-derived isoforms of PfCRT was undertaken with oocytes two days post-cRNA-injection (Figs. 3a–j, 4; Supplementary Fig. 2). The oocytes were injected with 25 nL of ND96 buffer (pH 5.5) supplemented with [^3H]VF-6 and unlabelled VF-6 to achieve estimated intracellular concentrations of 1.4 and 200 μM, respectively. Ten oocytes that had resealed at the injection site were transferred to a 5 mL polystyrene round bottom tube (In Vitro Technologies) and washed with 3.5 mL of ND96 buffer before being transferred to separate wells of a white 96-well plate (PerkinElmer). This treatment served to establish the amount of radioactivity within the oocytes immediately prior to the commencement of the transport assay. Another 10 resealed oocytes were transferred to a 5 mL tube and washed with 3.5 mL of ND96 buffer. […] The assay was terminated by removing the reaction buffer with a pipette and washing the oocytes twice with 3.5 mL of ice-cold ND96 buffer. Each oocyte was transferred to a separate well of a white 96-well plate. The oocytes were lysed by the addition of 20 μL of 10% (w/v) SDS and overnight incubation at room temperature. The lysed oocyte was then combined with 150 μL of MicroScint-40 microscintillant (PerkinElmer), the plate covered with a TopSeal-A (PerkinElmer), and the radioactivity measured with a MicroBeta^2 microplate liquid scintillation analyser (PerkinElmer). VF-6 transport was calculated by subtracting the amount of radioactivity (measured in counts per minute) present within the oocytes at the end of the incubation from that measured in the oocytes sampled immediately before the commencement of the assay. The pH-dependence of transport (Fig. 3c) was determined by injecting the oocytes with [^3H]VF-6 suspended in 25 nL ND96 buffer adjusted to pH 5.0, 5.5, 6.0 or 7.0, which corresponded to the injection of 2.5–250 fmol of H^+. The dependence of [^3H]VF-6 transport on Na^+ or Cl^− was examined by injecting the oocytes with [^3H]VF-6 suspended in the control ND96 buffer (pH 5.5) or a version of this buffer that lacked either Na^+ or Cl^− (Supplementary Fig. 2). […] The dependence of peptide transport on Ca^2+ was determined by injecting the oocytes with [^3H]VF-6 suspended in ND96 buffers that contained different concentrations of Ca^2+ (0–5 mM; Supplementary Fig. 2). […] The dependence of PfCRT-mediated transport on the membrane potential was examined by using (1) Na^+ ionophore III in conjunction with the Na^+ gradients listed in Supplementary Data 7 and (2) Cl^− ionophore III in conjunction with the Cl^− gradients listed in Supplementary Data 7 to clamp the membrane potential of the oocyte from −80 to +80 mV. […] The kinetic parameters for VF-6 transport via different isoforms of PfCRT (Figs. 3e and 4a) were determined in SigmaPlot Windows Version 11.0 by a least-squares fit of the Michaelis–Menten equation to the data.
(§2) A subset of assays measured the ability of solutes known to interact with PfCRT to either cis-inhibit, trans-inhibit or trans-stimulate [^3H]VF-6 transport. These experiments involved adding these solutes to either the cis- or trans-side of the membrane relative to [^3H]VF-6. […] At least five independent experiments were performed (on different days and using oocytes from different frogs), and within each experiment measurements were made from ten oocytes per treatment.

PfCRT^Ecu1110 = PfCRT^Ecu1110 (Plasmodium falciparum, UniProt Q9N623, A220S/I356L/K76T/N326D); test: cell-based; details: mean ± SEM, n = 5, SEM
Chain of PfCRT^Ecu1110 (Q9N623 whole entry A220S/I356L/K76T/N326D): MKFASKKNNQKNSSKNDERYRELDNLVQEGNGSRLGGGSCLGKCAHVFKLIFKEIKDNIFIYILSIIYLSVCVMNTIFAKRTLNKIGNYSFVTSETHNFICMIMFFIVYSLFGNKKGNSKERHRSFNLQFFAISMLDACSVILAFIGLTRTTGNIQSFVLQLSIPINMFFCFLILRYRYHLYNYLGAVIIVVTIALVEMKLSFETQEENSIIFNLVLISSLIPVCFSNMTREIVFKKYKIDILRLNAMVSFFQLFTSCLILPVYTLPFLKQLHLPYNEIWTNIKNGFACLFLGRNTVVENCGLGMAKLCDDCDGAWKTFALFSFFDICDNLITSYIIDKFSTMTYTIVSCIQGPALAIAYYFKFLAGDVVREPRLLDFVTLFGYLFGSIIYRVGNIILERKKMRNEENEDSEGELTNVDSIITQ
Protocol: as §1, §2

PfCRT^3D7 = PfCRT^3D7 (Plasmodium falciparum, UniProt Q8IBZ9); test: cell-based; details: for IC50: mean ± SEM, n = 5, SEM
Chain of PfCRT^3D7 (Q8IBZ9 59-398): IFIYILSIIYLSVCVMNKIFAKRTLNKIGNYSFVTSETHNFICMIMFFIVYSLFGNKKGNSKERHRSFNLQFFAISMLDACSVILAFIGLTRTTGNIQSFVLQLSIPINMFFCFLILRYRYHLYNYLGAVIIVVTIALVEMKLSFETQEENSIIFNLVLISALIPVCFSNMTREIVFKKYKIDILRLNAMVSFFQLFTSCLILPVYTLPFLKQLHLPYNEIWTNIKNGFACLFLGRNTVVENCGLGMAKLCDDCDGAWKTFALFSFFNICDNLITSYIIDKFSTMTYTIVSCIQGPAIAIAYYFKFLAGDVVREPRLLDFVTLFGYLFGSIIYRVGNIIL
Protocol: as §1, §2

PfCRT = test: Potential co-substrates tested for influx of VF-6 via PfCRT into the oocyte; format: cell-based, Plasmodium falciparum; parameters: key: X: Compounds that have been tested as potential co-substrates but are not required for influx of VF-6 via PfCRT into the oocyte

Chain of PfCRT^Dd2 (Q9N623 whole entry A220S/I356T/K76T/M74I/N326S/N75E/Q271E/R371I, canonical isoform): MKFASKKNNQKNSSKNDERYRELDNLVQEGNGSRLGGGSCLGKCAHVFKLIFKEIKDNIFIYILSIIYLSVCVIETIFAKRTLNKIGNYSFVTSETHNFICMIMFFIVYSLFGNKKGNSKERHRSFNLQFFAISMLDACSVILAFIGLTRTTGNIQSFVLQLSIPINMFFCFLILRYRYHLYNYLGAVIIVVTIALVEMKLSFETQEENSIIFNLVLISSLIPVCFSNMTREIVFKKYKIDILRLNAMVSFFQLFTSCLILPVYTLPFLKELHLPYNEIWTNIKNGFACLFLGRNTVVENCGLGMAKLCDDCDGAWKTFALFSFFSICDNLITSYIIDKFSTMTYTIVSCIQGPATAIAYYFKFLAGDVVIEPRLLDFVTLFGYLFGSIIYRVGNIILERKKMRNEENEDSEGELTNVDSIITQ

| SMILES | Tested as potential co-substrate but not required for influx of VF-6 via PfCRT into the oocyte (PfCRT) | also measured |
| --- | --- | --- |
| CCN(CC)CCCC(C)Nc1ccnc2cc(Cl)ccc12 (centres unmarked) [CQ, chloroquine, reference compound] |  | IC50 (PfCRT^Dd2; Cis-inhibition IC50 of [3H]VF-6 transport, PfCRTDd2, drug on same side as [3H]VF-6): 53 ± 2.8 µM; IC50 (PfCRT^Dd2; Trans-inhibition IC50 of [3H]VF-6 transport, PfCRTDd2, drug on opposite side to [3H]VF-6): 54 ± 3.6 µM; IC50 (PfCRT^Ecu1110; Cis-inhibition IC50 of [3H]VF-6 transport, PfCRTEcu1110, drug on same side as [3H]VF-6): 72 ± 3.1 µM; IC50 (PfCRT^Ecu1110; Trans-inhibition IC50 of [3H]VF-6 transport, PfCRTEcu1110, drug on opposite side to [3H]VF-6): 62 ± 2.6 µM; IC50 (PfCRT^3D7; Cis-inhibition IC50 of [3H]VF-6 transport, PfCRT3D7, drug on same side as [3H]VF-6): 110 ± 5.9 µM; IC50 (PfCRT^3D7; Trans-inhibition IC50 of [3H]VF-6 transport, PfCRT3D7, drug on opposite side to [3H]VF-6): 77 ± 5.2 µM; Extracellular concentration giving modest trans-stimulation of [3H]VF-6 transport (PfCRT^3D7; all three PfCRT isoforms): ≥ 500 µM |
| C[C@H](N)C(=O)O [L-alanine] | X |  |
| N=C(N)NCCC[C@H](N)C(=O)O [L-arginine] | X |  |
| NC(=O)C[C@H](N)C(=O)O [L-asparagine] | X |  |
| N[C@@H](CS)C(=O)O [L-cysteine] | X |  |
| N[C@@H](CCC(=O)O)C(=O)O [L-glutamic acid] | X |  |
| NC(=O)CC[C@H](N)C(=O)O [L-glutamine] | X |  |
| N[C@@H](Cc1c[nH]cn1)C(=O)O [L-histidine] | X |  |
| CC[C@H](C)[C@H](N)C(=O)O [L-isoleucine] | X |  |
| CC(C)C[C@H](N)C(=O)O [L-leucine] | X |  |
| NCCCC[C@H](N)C(=O)O [L-lysine] | X |  |
